Data: patent publication US11654036B2, “Anticoagulant compounds and methods and devices for their use” (priority 2020, dated 2023)
Read-outs that look alike come from different tables or passages of the source.

How the values were obtained:
[1] = Coated balloon tissue concentration in vivo (Table 7); design: species or system porcine; conditions: for concentration at 15 min: 300 μg
Source text: The balloon (e.g., the balloon of a balloon-catheter of a stent-delivery system) was advanced to a site to be treated (e.g., an occluded or weakened section of a blood vessel to be opened up or supported by a stent) in the body of a subject and inflated to a desired inflation diameter. Before, during, and/or after inflation of the balloon, the balloon released the therapeutic composition to, into, or at the treatment site, or to, into, or at an area adjacent thereto, by any suitable mechanism (e.g., concentration gradient, diffusion, pressure, or mechanical force, or a combination thereof). […] The tissue concentration is shown in ng/mg tissue. The coated balloons were evaluated for drug delivery efficiency in an animal study. Drug transfer of the coated balloons into arterial segments were evaluated using harvested pig arteries. The arterial wall was separated after animal study. The arterial walls were then stored in an individual labeled vial. All samples were kept on dry ice until stored in the −80° C. freezer. All samples were then frozen to […] prior to being analyzed.

[2] = tested on: Calcium-reconstituted sheep blood; test: Activated clotting time (ACT); conditions: individual drug at 0.6 ng/mg
Experimental: The activated clotting time (ACT) evaluation of anticoagulants was performed in Calcium-reconstituted sheep blood and recorded employing the Hemochron® Response device. […] A target amount of drug solution was then added into the test tube. […] The tube was gently shaken before being inserted into the Hemochron Response detector. The ACT read out was recorded and reported. The ACT of the control blood in the absence of any drug as first determined to establish a baseline. Then ACT was determined in the presence of different concentrations of the drug as a single component. Selected drug combinations, were then tested to evaluate for potential synergy in action between the two drugs.

[3] = Tissue drug concentration in stented and adjacent artery segments (LCMS); type: in vivo, porcine; conditions: pig, artery tissue adjacent to the stented segment, other: drug eluting stent implanted in coronary artery, Table 4B, stent arm not named; for concentration at 3 h: within 3 hours; for concentration at 28 days: within 28 days; for concentration at 90 days: within 90 days
Source text: The stented artery was cut longitudinally with surgical scissors. The stents were separated from the tissue.

[4] = tested on: Human Aortic SMC (HAoSMC); test: HAoSMC cell proliferation assay; type: cell-based; conditions: 72 hours incubation
[5] = tested on: Tissue factor generated antiplatelet; conditions: cited from earlier work

| Structure (SMILES) | concentration at 3 h [3] [ng/g] | concentration at 28 days [3] [ng/g] | ACT [2] | concentration at 90 days [3] [ng/g] | IC50 [5] [nM] | IC50 for Tissue factor generated antiplatelet [5] [ng/mg] | also measured |
| --- | --- | --- | --- | --- | --- | --- | --- |
| CO[C@@H]1C[C@H](C[C@@H](C)[C@@H]2CC(=O)[C@H](C)/C=C(\C)[C@@H](O)[C@@H](OC)C(=O)[C@H](C)C[C@H](C)/C=C/C=C/C=C(\C)[C@@H](O)C[C@@H]3CC[C@@H](C)[C@@](O)(O3)C(=O)C(=O)N3CCCC[C@H]3C(=O)O2)CC[C@H]1O [Novolimus, 16-O-desmethyl-rapamycin] | – | – | – | – | – | – | tissue concentration of tissue adjacent to the balloon treated segment ([1]; Superficial Femoral Artery (SFA) tissue, within or at 6 hours): at least 5.94 ng/mg; tissue concentration of tissue adjacent to the balloon treated segment ([1]; Superficial Femoral Artery (SFA) tissue, within or at 3 day): at least 4.4 ng/mg; tissue concentration of tissue adjacent to the balloon treated segment ([1]; Superficial Femoral Artery (SFA) tissue, within or at 7 days): at least 1.16 ng/mg; tissue concentration of tissue adjacent to the balloon treated segment ([1]; coronary artery tissue, within or at 6 hours): at least 6.52 ng/mg; tissue concentration of tissue adjacent to the balloon treated segment ([1]; coronary artery tissue, within or at 3 day): at least 3.77 ng/mg; tissue concentration of tissue adjacent to the balloon treated segment ([1]; coronary artery tissue, within or at 7 days): at least 1.47 ng/mg |
| COc1ccc(-n2nc(C(N)=O)c3c2C(=O)N(c2ccc(N4CCCCC4=O)cc2)CC3)cc1 [Apixaban] | – | – | 522 | – | – | – | – |
| CC1CNc2c(cccc2S(=O)(=O)N[C@@H](CCCNC(=N)N)C(=O)N2CC[C@@H](C)C[C@@H]2C(=O)O)C1 (some centres unmarked) [Argatroban] | – | – | 301 | ~3740 | 79 | 0.04 | HAoSMC proliferation inhibition [4]: small to no inhibition |

Further lines, with some results ahead:

| concentration at 3 h [3] [ng/g] | concentration at 28 days [3] [ng/g] | Structure (SMILES) | ACT [2] | concentration at 90 days [3] [ng/g] | IC50 [5] [nM] | IC50 for Tissue factor generated antiplatelet [5] [ng/mg] | also measured |
| --- | --- | --- | --- | --- | --- | --- | --- |
| ~27000 | ~940 | CO[C@H]1C[C@@H]2CC[C@@H](C)[C@@](O)(O2)C(=O)C(=O)N2CCCC[C@H]2C(=O)O[C@H]([C@H](C)C[C@@H]2CC[C@@H](O)[C@H](OC)C2)CC(=O)[C@H](C)/C=C(\C)[C@@H](O)[C@@H](OC)C(=O)[C@H](C)C[C@H](C)/C=C/C=C/C=C/1C [Sirolimus, rapamycin (also called sirolimus)] | – | ~1280 | – | – | concentration at 7 days ([1]; pig, coronary artery tissue, within or at 7 days, read-out: tissue concentration of tissue adjacent to the balloon treated segment): ≥ 1450 ng/g |
| ~21000 | ~340 | O=C(NC[C@H]1CN(c2ccc(N3CCOCC3=O)cc2)C(=O)O1)c1ccc(Cl)s1 [Rivaroxaban] | – | – | 312 | 0.136 | concentration at 1 h ([3]; within one hour from injury and/or implant): ~38000 ng/g; concentration at 15 min ([1]; pig, Superficial Femoral Artery (SFA) tissue, within or at 15 minutes, read-out: tissue concentration of tissue adjacent to the balloon treated segment): ≥ 40600 ng/g; concentration at 15 min ([1]; pig, coronary artery tissue, within or at 15 min, read-out: tissue concentration of tissue adjacent to the balloon treated segment): ≥ 1230 ng/g |
